The values that follow come from patent US20120238549A1, “Nuclear Hormone Receptor Modulators” (ABBOTT LABORATORIES, priority 2011, published 2012).

Where only a bound is given, the exact number is not on record here.

This experiment addresses T1, Glucocorticoid Receptor (GR) (Homo sapiens, UniProt P04150).
T1 construct: purchased Invitrogen P2893
T1 sequence (P04150 1-777): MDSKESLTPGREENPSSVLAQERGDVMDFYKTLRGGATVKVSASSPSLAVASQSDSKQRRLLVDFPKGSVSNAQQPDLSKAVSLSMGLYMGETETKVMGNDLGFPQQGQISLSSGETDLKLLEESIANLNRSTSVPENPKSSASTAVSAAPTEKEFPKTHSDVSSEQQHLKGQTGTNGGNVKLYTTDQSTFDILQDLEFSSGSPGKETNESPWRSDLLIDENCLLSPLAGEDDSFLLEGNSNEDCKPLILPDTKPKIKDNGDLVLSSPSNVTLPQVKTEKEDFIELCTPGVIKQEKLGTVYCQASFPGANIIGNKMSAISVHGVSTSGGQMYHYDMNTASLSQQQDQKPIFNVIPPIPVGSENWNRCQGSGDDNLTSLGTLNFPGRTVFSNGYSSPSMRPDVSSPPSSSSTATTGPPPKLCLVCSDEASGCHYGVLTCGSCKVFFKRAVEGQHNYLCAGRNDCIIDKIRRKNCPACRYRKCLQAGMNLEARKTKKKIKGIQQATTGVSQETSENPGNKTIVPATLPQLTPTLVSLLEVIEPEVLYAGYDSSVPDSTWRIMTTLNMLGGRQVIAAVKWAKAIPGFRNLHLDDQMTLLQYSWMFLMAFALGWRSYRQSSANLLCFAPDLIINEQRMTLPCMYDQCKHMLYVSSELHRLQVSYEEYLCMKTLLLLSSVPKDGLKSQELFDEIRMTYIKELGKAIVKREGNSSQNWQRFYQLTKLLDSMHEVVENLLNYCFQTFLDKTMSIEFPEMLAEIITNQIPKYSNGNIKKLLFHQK
As to the kind of experiment: GR Florescence Polarization Assay (PolarScreen Glucocorticoid Receptor Competitor Assay, Red). As to conditions: Fluorescense polarization binding ranges; competition with fluorescent glucocorticoid, incubated overnight at 4° C. As for the experimental part:
GR Florescence Polarization Assay Florescence polarization assays were carried out using the PolarScreen™ Glucocorticoid Receptor Competitor Assay, Red from Invitrogen (P2893). The assay buffer was prepared according to the manufacturer's protocol and used to dilute the fluorescent glucocorticoid and GR. Compounds were prepared and serial diluted 1:4 in DMSO. Compound, fluorescent glucocorticoid and GR were added in a final volume of 20 μL and incubated overnight at 4° C. Fluorescent polarization was measured on the Perkinelmer Envision®.

Consider `CC#C[C@]1(O)CC[C@@]2(Cc3ccccc3)c3ccc(C(=O)Nc4cccnc4C)cc3CCC[C@H]2C1` (racemic) [Example 29, (7aS,9S,11aS)-11a-Benzyl-9-hydroxy-9-prop-1-ynyl-6,7,7a,8,9,10,11,11a-octahydro-5H-dibenzo[a,c]cycloheptene-3-carboxylic acid (2-methyl-pyridin-3-yl)-amide; compound with (7aR,9R,11aR)-11a-benzyl-9-hydroxy-9-prop-1-ynyl-6,7,7a,8,9,10,11,11a-octahydro-5H-dibenzo[a,c]cycloheptene-3-carboxylic acid (2-methyl-pyridin-3-yl)-amide], for which the IC50 lay within 100 to 1000 nM.
For the compound `CCC[C@]1(O)CC[C@]2(CC)c3ccc(C(=O)Nc4cccnc4C)cc3C=CC[C@@H]2C1` (single isomer, unassigned) [Example 130], the IC50 was less than 100 nM.
To `CCC[C@@]1(O)CC[C@@]2(CC)c3ccc(C(=O)Nc4cccnc4C)cc3COC[C@H]2C1` (racemic) [Example 136, (7aS,9R,11aR)-11a-Ethyl-9-propyl-9-hydroxy-N-(2-methylpyridin-3-yl)-5,7,7a,8,9,10,11,11a-octahydrodibenzo[c,e]oxepine-3-carboxamide; compound with (7aR,9S,11aS)-11a-ethyl-9-propyl-9-hydroxy-N-(2-methylpyridin-3-yl)-5,7,7a,8,9,10,11,11a-octahydrodibenzo[c,e]oxepine-3-carboxamide] belongs less than 100 nM; to `CCC[C@@]1(O)CC[C@@]2(CC(F)(F)F)c3ccc(C(=O)Nc4cccnc4C)cc3CCC[C@H]2C1` (racemic) [Example 52], less than 100 nM.
The compound `CC[C@@]1(O)CC[C@@]2(Cc3ccccc3)c3ccc(C(=O)Nc4ccccc4N)cc3CCC[C@H]2C1` [Example 126, (7aS,9R,11aS)-11a-Benzyl-9-ethyl-9-hydroxy-6,7,7a,8,9,10,11,11a-octahydro-5H-dibenzo[a,c]cycloheptene-3-carboxylic acid (2-amino-phenyl)-amide] displayed an IC50 of less than 100 nM.
`COc1ccc2c(c1)CCCC1=CC(=O)CCC12Cc1ccccc1` (stereo not shown) [Example 1, 11b-Benzyl-9-methoxy-1,2,5,6,7,11b-hexahydro-dibenzo[a,c]cyclohepten-3-one] yielded an IC50 of 100 to 1000 nM.
The figure for `Cc1ncccc1NC(=O)c1ccc2c(c1)CCC[C@@H]1C[C@](C)(O)CC[C@@]21Cc1ccccc1` (single isomer, unassigned) [Example 90] is less than 100 nM; for `CC[C@@]1(O)CC[C@@]2(Cc3ccccc3)c3ccc(C(=O)Nc4cccnc4C)cc3CCC[C@H]2C1.CC[C@]1(O)CC[C@]2(Cc3ccccc3)c3ccc(C(=O)Nc4cccnc4C)cc3CCC[C@@H]2C1` [Example 12, (7aS,9R,11aS)-11a-Benzyl-9-ethyl-9-hydroxy-6,7,7a,8,9,10,11,11a-octahydro-5H-dibenzo[a,c]cycloheptene-3-carboxylic acid (2-methyl-pyridin-3-yl)-amide; compound with (7aR,9S,11aR)-11a-benzyl-9-ethyl-9-hydroxy-6,7,7a,8,9,10,11,11a-octahydro-5H-dibenzo[a,c]cycloheptene-3-carboxylic acid (2-methyl-pyridin-3-yl)-amide] it is less than 100 nM.
To `CC[C@@]12C[C@@H](O)[C@](O)(c3ccccc3)C[C@@H]1CCCc1cc(C(=O)Nc3cccnc3C)ccc12` (single isomer, unassigned) [Example 124] belongs 1000 to 10000 nM.
The figure for `CC[C@@]1(O)CC[C@@]2(Cc3ccccc3)c3ccc(-c4nc5ccccc5[nH]4)cc3CCC[C@H]2C1` [Example 127, (3R,4aS,11bS)-9-(1H-benzoimidazol-2-yl)-11b-benzyl-3-ethyl-2,3,4,4a,5,6,7,11b-octahydro-1H-dibenzo[a,c]cyclohepten-3-ol] is 100 to 1000 nM.
